Read-outs that look alike come from different tables or passages of the source.
What was measured:
[1] = type: physicochemical
Alternaria brassicae = assay: In vivo preventive test on Alternaria brassicae (leaf spot on radish); settings: 500 ppm; radish plants sprayed 24 hours before contamination; grading 5 days after contamination vs control plants
Procedure: Radish plants (“Pernod Clair” variety), sown in starter cups on a 50/50 peat soil-pozzolana substrate and grown at 17° C., are treated at the 2-leaf stage by spraying with the active ingredient prepared as described above. Plants, used as controls, are treated with the mixture of acetone/tween/DMSO/water not containing the active material. After 24 hours, the plants are contaminated by spraying the leaves with an aqueous suspension of Alternaria brassicae spores (50 000 spores per ml). The spores are collected from a 15-day-old culture. […] Grading (% of efficacy) is carried out 5 days after the contamination, in comparison with the control plants.

Septoria tritici = assay: In vivo preventive test on Septoria tritici (leaf spot on wheat); settings: 500 ppm; wheat plants sprayed 24 hours before contamination; grading 21 to 28 days after contamination vs control plants
Summary of the method: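 Scipion wheat at 1-leaf stage sprayed with compound, controls receiving acetone/tween/DMSO/water vehicle; 24 h later leaves inoculated with Septoria tritici spores (500 000 spores per ml). Efficacy (%) graded versus control plants 21 to 28 days after contamination.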

Botrytis cinerea = assay: In vivo preventive test on Botrytis cinerea (grey mould); settings: 500 ppm; gherkin plants sprayed 24 hours before contamination; grading 4-5 days after contamination vs control plants
Summary of the method: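 Gherkin plants ("Vert petit de Paris") sprayed with compound at Z11 cotyledon stage, then inoculated 24 h later with B. cinerea spores (50 000/ml) in PDB/fructose/NH4NO3/KH2PO4 nutrient solution. Incubated at 17 °C, 80% RH; % efficacy versus solvent-treated controls graded 4–5 days after contamination.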

Phytophthora infestans = type: in vivo; settings: 500 ppm; tomato plants sprayed 24 hours before contamination; grading 5 days after contamination vs control plants
Sphaerotheca fuliginea = assay: In vivo preventive test on Sphaerotheca fuliginea (powdery mildew on cucurbits); settings: 500 ppm; gherkin plants sprayed 24 hours before contamination; grading 12 days after contamination vs control plants
Summary of the method: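 Preventive spray of gherkin plants at Z11 cotyledon stage, grown at 24° C; inoculation 24 hours later with Sphaerotheca fuliginea spores (100 000 spores per ml). Efficacy graded 12 days post-inoculation as % versus solvent-treated control plants.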

[2] = method [a]: HPLC/LC-MS on reversed phase at pH 2.7, 0.1% formic acid in water / acetonitrile, gradient 10% to 95% acetonitrile
[3] = HPLC on reversed phase columns, method [a]: pH 2.7, 0.1% formic acid in water / acetonitrile, linear gradient 10% to 95% acetonitrile
[4] = method [a]: HPLC/LC-MS on reversed phase at pH 2.7, 0.1% formic acid in water / acetonitrile, linear gradient 10% to 95% acetonitrile
[5] = HPLC on reversed phase columns, method [a]: pH 2.7, 0.1% formic acid in water and acetonitrile, linear gradient 10% to 95% acetonitrile

SMILES	log P [1, 2]	% of efficacy (protection) (Alternaria brassicae)	% of efficacy (protection) (Septoria tritici)	log P [1, 4]	% of efficacy (protection) (Botrytis cinerea)	% of efficacy (protection) (Phytophthora infestans)	% of efficacy (protection) (Sphaerotheca fuliginea)	other results
CCOCCCNC(=O)C1(CC2CC2)CC(c2ccc3ncc(Br)cc3c2)=NO1 (racemic) [compound 426]	3.55[a]	78%						
O=C(NC1CC1)C1(CC2CC2)CC(c2ccc3ncc(Br)cc3c2)=NO1 (racemic) [compound 427]	3.20[a]	83%						
C#Cc1cnc2ccc(C3=NOC(C)(C(=O)NCC4OCCc5ccccc54)C3)cc2c1 (single isomer, unassigned) [compound 245]		94%	71%					log P [1, 3]: 2.92^[a]
CC1(C(=O)NCc2ccc(Oc3ccccc3)cc2)CC(c2ccc3ncc(Br)cc3c2)=NO1 (stereo not shown) [compound 84]		80%		4.24^[a]				
Cc1cnc(CNC(=O)C2(C)CC(c3ccc4ncc(Br)cc4c3)=NO2)cn1 (stereo not shown) [compound 85]		96%	75%	2.2^[a]				
CC1(C(=O)NCc2ccc(Cl)cc2Cl)CC(c2ccc3ncc(Br)cc3c2)=NO1 (stereo not shown) [compound 95]		70%		4.16^[a]				
CC1(C(=O)NCc2ccnc(N3CCOCC3)c2)CC(c2ccc3ncc(Br)cc3c2)=NO1 (stereo not shown) [compound 98]		70%		1.51^[a]				
C#Cc1cnc2ccc(C3=NOC(C)(C(=O)NCc4ccncc4)C3)cc2c1 (stereo not shown) [compound 99]		70%		1.2^[a]	100%			
CC1(C(=O)NCc2ccco2)CC(c2ccc3ncc(Br)cc3c2)=NO1 (stereo not shown) [compound 161]		75%		2.82^[a]				
C#Cc1cnc2ccc(C3=NOC(C)(C(=O)NCc4ccc(C)o4)C3)cc2c1 (stereo not shown) [compound 163]		88%		2.8^[a]				
C#Cc1cnc2ccc(C3=NOC(C)(C(=O)NCc4ccco4)C3)cc2c1 (stereo not shown) [compound 164]		88%		2.51^[a]	71%			
C#Cc1cnc2ccc(C3=NOC(C)(C(=O)NCc4noc(C)n4)C3)cc2c1 (stereo not shown) [compound 170]		81%	71%	1.99^[a]	100%			
Cc1nc(CNC(=O)C2(C)CC(c3ccc4ncc(Br)cc4c3)=NO2)no1 (stereo not shown) [compound 171]		75%	71%	2.23^[a]				
C#Cc1cnc2ccc(C3=NOC(C)(C(=O)NCc4ccc(OC(F)(F)F)cc4)C3)cc2c1 (stereo not shown) [compound 173]		88%		3.53^[a]				
C#Cc1cnc2ccc(C3=NOC(C)(C(=O)NCc4ccccc4Oc4ccccc4)C3)cc2c1 (stereo not shown) [compound 187]		88%		3.89^[a]				
CC1(C(=O)NCc2cccc(OC(F)(F)F)c2)CC(c2ccc3ncc(Br)cc3c2)=NO1 (stereo not shown) [compound 188]		88%		3.89^[a]				
C#Cc1cnc2ccc(C3=NOC(C)(C(=O)NCc4ccc5c(c4)OCCO5)C3)cc2c1 (stereo not shown) [compound 208]		88%		2.71^[a]				
C#Cc1cnc2ccc(C3=NOC(C)(C(=O)NCc4ccc5c(c4)OCC5)C3)cc2c1 (stereo not shown) [compound 220]		88%		2.82^[a]	100%			
CC1(C(=O)NCC2(c3ccc(F)cc3)CC2)CC(c2ccc3ncc(Br)cc3c2)=NO1 (stereo not shown) [compound 221]		98%		3.81^[a]				
C#Cc1cnc2ccc(C3=NOC(C)(C(=O)NCc4ccc5[nH]c(C)cc5c4)C3)cc2c1 (stereo not shown) [compound 226]		81%		2.84^[a]				

SMILES	log P [1, 2]	% of efficacy (protection) (Alternaria brassicae)	% of efficacy (protection) (Septoria tritici)	log P [1, 4]	% of efficacy (protection) (Botrytis cinerea)	% of efficacy (protection) (Phytophthora infestans)	% of efficacy (protection) (Sphaerotheca fuliginea)	other results
CC1(C(=O)NCc2csc3ccc(Cl)cc23)CC(c2ccc3ncc(Br)cc3c2)=NO1 (stereo not shown) [compound 241]		81%						log P [1, 3]: 4.21^[a]
C#Cc1cnc2ccc(C3=NOC(C)(C(=O)NCc4csc5ccc(Cl)cc45)C3)cc2c1 (stereo not shown) [compound 244]		81%						log P [1, 3]: 3.74^[a]
C#Cc1cnc2ccc(C3=NOC(C)(C(=O)NCC4CCCCC4)C3)cc2c1 (stereo not shown) [compound 246]		75%						log P [1, 3]: 3.55^[a]
CC(C)NC(=O)C12OCCCC1C(c1ccc3ncc(Br)cc3c1)=NO2 (stereo not shown) [compound 273]		75%						log P [1, 3]: 2.90[a]
C#Cc1cc2cc(C3=NOC(C)(C(=O)NCc4cn(CC)nc4C)C3)ccc2nc1Cl (stereo not shown) [compound 411]	2.59[a]	80%						
CCCOc1cnc2ccc(C3=NOC(C)(C(=O)NC(C)C)C3)cc2c1 (stereo not shown) [compound 412]	2.16[a]	70%						
CCOC1(C(=O)NC(C)C)CC(c2ccc3ncc(Br)cc3c2)=NO1 (stereo not shown) [compound 415]	2.98[a]	80%						
CC(C)NC(=O)C1(CC2CC2)CC(c2ccc3ncc(Br)cc3c2)=NO1 (stereo not shown) [compound 422]	3.60[a]	72%						
C#Cc1cnc2ccc(C3=NOC(C)(C(=O)NC(C)(C)C#CCOC)C3)cc2c1 (stereo not shown) [compound 465]	2.82[a]		97%		88%	100%	81%	
C#Cc1cnc2ccc(C3=NOC(C)(C(=O)NC4CCOCC4C)C3)cc2c1 (stereo not shown) [compound 470]	2.21[a]		97%		100%	98%	75%	
CC1(C)OCC(CNC(=O)C2(C)CC(c3ccc4ncc(I)cc4c3)=NO2)O1 (stereo not shown) [compound 474]	2.78[a]		97%		100%	78%	98%	
CCCn1cc(CNC(=O)C2(CC)CC(c3ccc4ncc(Br)cc4c3)=NO2)c(C)n1 (stereo not shown) [compound 500]	2.91[a]		86%		85%	94%	100%	
C#Cc1cnc2ccc(C3=NOC(C)(C(=O)NC(C)COCC)C3)cc2c1 (stereo not shown) [compound 506]	2.55[a]		100%		100%	94%	97%	
C#Cc1cnc2ccc(C3=NOC(OC)(C(=O)NC(C)(C)c4cc(C)ccn4)C3)cc2c1 (stereo not shown) [compound 511]	1.95[a]		100%		100%	100%	88%	
C#Cc1cnc2ccc(C3=NOC(OC)(C(=O)NC(C)(C)c4nc(C)cs4)C3)cc2c1 (stereo not shown) [compound 514]			98%		100%	97%	75%	log P [1, 3]: 2.90[a]
C#Cc1cnc2c(C)cc(C3=NOC(C)(C(=O)NCc4cn(CCC)nc4C)C3)cc2c1 (stereo not shown) [compound 533]			100%		100%	90%	100%	log P [1, 3]: 2.90[a]
C#Cc1cnc2c(Cl)cc(C3=NOC(C)(C(=O)NCc4cn(CC)nc4C)C3)cc2c1 (stereo not shown) [compound 550]			100%		98%	83%	80%	log P [1, 3]: 2.53[a]
CCn1cc(CNC(=O)C2(SC)CC(c3ccc4ncc(Br)cc4c3)=NO2)c(C)n1 (stereo not shown) [compound 565]			100%		100%	99%	98%	log P [1, 3]: 2.51[a]
C#Cc1cnc2ccc(C3=NOC(C=C)(C(=O)NCC4COC(C)(C)O4)C3)cc2c1 (stereo not shown) [compound 725]			100%		98%	83%	98%	log P [1, 5]: 2.66[a]
C=CC1(C(=O)NCCCOCC)CC(c2ccc3ncc(I)cc3c2)=NO1 (stereo not shown) [compound 730]			100%		85%	100%	98%	log P [1, 5]: 3.19[a]

From US9510598B2, “Nitrogen-containing heterocyclic compounds for plant disease control” (BAYER CROPSCIENCE AG, priority 2012, dated 2016)
